Experimental data from paper PMC11148078, “Potent activity of polymyxin B is associated with long-lived super-stoichiometric accumulation mediated by weak-affinity binding to lipid A” (Nature Communications, 2024).
Bridge positions count the residues as written; N and C are the ends. Square brackets hold non-standard residues; d marks the D form. Peptide text beside a SMILES is read from it. * marks the point of attachment. X1 = CC[C@H](C)CCCCC(=O)*; Dab = NCC[C@H](N)C(=O)O

Assays:
[1] = system: resistant-OMVs (E. coli PmrA^G53E); test: Single-cycle kinetic SPR binding to immobilized resistant-OMVs; details: serial doubling injections, C1 chip
Description: Polymyxin B was covalently attached to a C1 chip (Series S Sensor Chip C1, Cytiva) using an amine coupling kit (Cytiva). Cartoon in Fig. 1A created with BioRender (biorender.com). Briefly, equal amounts of reagents N-hydroxysuccinimide and 1-ethyl-3-(3-dimethylaminopropyl) carbodiimide hydrochloride were mixed as per manufacturer’s instructions and immediately added to the gold chip surface for 2 min, washed with distilled deionized water, and dried. Sufficient polymyxin B (1 mM in 1 M HEPES buffer, pH 8) was added to cover the chip surface, incubated at room temperature for 1 h, washed as before, and then incubated with 1 M ethanolamine hydrochloride-NaOH, pH 8.5, for 1 min. The chip surface was washed with water, dried as previously described, immediately loaded into a Biacore S200, and primed with running buffer (described below) to equilibrate the system. C1 chips were used for multiple runs and discarded upon removal from the Biacore S200.
SCK C1-chip SPR experiments were performed in running buffer (Dulbecco’s phosphate-buffered salt solution 1x without calcium or magnesium (Fisher Scientific), pH 7.4, with 0.0005% tween-80 (Sigma) passed through a 0.2 µm filter) unless otherwise indicated. Inclusion of tween-80 prevented loss of polymyxin to the plastics[34] (also see Supplementary Information Methods). For experiments with brevicidine, which was suspended in DMSO, 0.125% DMSO was included in the running buffer. OMVs were diluted from frozen stocks to approximately 20–30 µg/ml protein in the OMV buffer. Capture of OMVs was performed at a low flow rate ([…]) for 300 s over the test channel(s) followed by a 300 s stabilization period. All subsequent steps were at a flow rate of 40 µl/ml. For single cycle kinetics, two-fold dilutions were injected over the channel(s) loaded with OMVs and a reference channel without OMVs for 30 s contact and 480 s dissociation. […]

E. coli mcr-1+rifampicin = test: Rifampicin potentiation / outer membrane permeability, E. coli mcr-1; format: cell-based
Description: Bacterial strains and plasmids are listed in SI Table S5. LB growth media was prepared according to manufacturer’s instructions and supplemented with 0.2% arabinose and carbenicillin (50 μg/mL) for the strains containing pBAD24-mcr1 plasmid. Cultures were started by inoculating 3 ml LB with 1–2 colonies from fresh overnight plates and grown at 37 °C until in log phase. Modified minimal inhibitory concentration (MIC) assays were performed in 96-well round bottom polystyrene plates (Corning) with a final volume of 100 µl in LB supplemented with tween-80 at 0.0005%. […] Polymyxin B sulfate (TCI Co. Ltd), polymyxin B nonapeptide (PMBN) (Sigma), and brevicidine (Genentech) were diluted directly in the assay plates. Bacteria were diluted in LB with tween-80 0.0005% and added to a final OD600 of 0.0005. Growth was measured via OD600 on a SpectraMax M5 plate reader after overnight static growth at 37 °C with humidity.

## CC(C)C[C@@H]1NC(=O)[C@@H](Cc2ccccc2)NC(=O)[C@H](CCN)NC(=O)[C@@H](NC(=O)[C@H](CCN)NC(=O)[C@@H](N)[C@@H](C)O)CCNC(=O)[C@H]([C@@H](C)O)NC(=O)[C@H](CCN)NC(=O)[C@H](CCN)NC1=O [PMBN] (H-T[Dab][Dab][Dab][dF]L[Dab][Dab]T; lactam 3-C)
[1]
  SPR binding profile: exhibited only weak, saw-tooth binding
E. coli mcr-1+rifampicin
  MIC in presence of rifampicin: 2.5 µM

## CC[C@H](C)CCCCC(=O)N[C@@H](CCN)C(=O)N[C@H](C(=O)N[C@@H](CCN)C(=O)N[C@H]1CCNC(=O)[C@H]([C@@H](C)O)NC(=O)[C@H](CCN)NC(=O)[C@H](CCN)NC(=O)[C@H](CC(C)C)NC(=O)[C@@H](Cc2ccccc2)NC(=O)[C@H](CCN)NC1=O)[C@@H](C)O [Polymyxin B] (X1-[Dab]T[Dab][Dab][Dab][dF]L[Dab][Dab]T; lactam 4-C (inferred); N-terminus assumed)
[1]
  SPR binding profile: exhibited only the weak, saw-tooth binding
E. coli mcr-1+rifampicin
  MIC in presence of rifampicin: 0.001 µM
  outer membrane permeabilization / rifampicin potentiation: still potentiated the activity of an antibiotic normally excluded by the outer membrane, rifampicin
